From patent US20070154963A1, “Method to determine whether a compound is a cellular GSTpi inhibitor” (priority 2005, published 2007)
Numbered stars: 1 amine (or outer) side, 2 acyl side, 3 side chain; on linkers, the order of the positions; unused ones are H or OH. Square brackets hold non-standard residues; d marks the D form. Peptide text beside a SMILES is read from it. * marks the point of attachment. γGlu = O=C(O)[C@H](CCC(=O)[*:2])N[*:1]; dPhg = N[C@@H](C(=O)O)c1ccccc1; Bn = c1ccc(C*)cc1

What was measured:
[1] = target: GST P1-1 (Homo sapiens, UniProt P09211); conditions: purified GST P1-1 isoenzyme; read-out: GST P1-1 inhibition IC50; cited from earlier work
[2] = cited from earlier work
[3] = target: T1, GSTπ (Homo sapiens, UniProt P09211); test: cellular GSTπ inhibition: immunoprecipitable GSTπ in HL-60 cell lysate, Western blot; type: cell-based
T1 construct: host or cells: HL-60 human promyelocytic leukemia cells
Procedure: RPMI 1640 medium, NuPAGE® LDS sample buffer (non-reducing lithium dodecyl sulfate buffer, Catalog # NP0007), and NuPAGE® Novex 4-12% Bis-Tris polyacrylamide gels (Catalog # NP0321) were obtained from Invitrogen, Inc., Carlsbad, Calif., U.S.A. Complete Mini protease inhibitor cocktail tablets (Catalog # 04 693 124 001) were obtained from Roche Diagnostics, Inc., Indianapolis, Ind., U.S.A., and were used according to package directions. Lysis buffer (50 mM Tris, pH 8.0, 120 mM NaCl, 0.5% NP-40, and 100 mM NaF) was prepared at Telik, Inc., and the protease inhibitors added shortly before use.
HL-60 cells were seeded at 6×10^5 cells/mL in 20 mL RPMI 1640 medium supplemented with 10% fetal bovine serum, 1 mM L-glutamine and 20 μM gentamycin in each of six T75 flasks, and incubated at 37° C. overnight in a 5% CO2 atmosphere. […] The contents of each flask were then treated as follows: the cells were pelleted by centrifugation and the cell pellet washed twice with phosphate-buffered saline. The cells were then lysed by suspending the pellet in 1 mL lysis buffer, and incubating with gentle agitation at 4° C. for 30 minutes. The cell lysate was cleared by centrifugation at 13,000 rpm for 10 minutes, and the protein content of the lysate was measured using the Bio-Rad protein assay kit. Cell lysate containing 1 mg total proteins was incubated at 4° C. overnight with 4.2 μg of purified mouse monoclonal anti-human GSTπ antibody in 1 mL total volume. Protein A/G agarose beads, 50 μL, were added to the mixture and incubated at 4° C. for 1 hour. The beads were collected by centrifugation, washed three times in lysis buffer, and resuspended in 10 μL 1× non-reducing lithium dodecyl sulfate buffer, and the suspension heated at 95° C. for 5 minutes. The proteins from the six cell lysates, together with a molecular weight marker, were then separated by electrophoresis on a 4-12% Bis-Tris gel and transferred to a nitrocellulose membrane. […] The GSTπ protein bands were visualized and the summed intensities of the GST P1-1 dimer and GST P1 monomer bands quantitated on an Odyssey infrared scanner.

[4] = system: HL-60 promyelocytic leukemia cells; conditions: in vitro; cited from earlier work
[5] = system: hematopoietic progenitor cells in normal human peripheral blood; conditions: all three lineages; cited from earlier work
[6] = normal animals and animals depleted by cisplatin or fluorouracil; cited from earlier work
[7] = MDS clinical trial, interim results; cited from earlier work
[8] = HL-60 cells, 1-40 μM, two hours

T1 sequence (P09211 2-210 limits assumed): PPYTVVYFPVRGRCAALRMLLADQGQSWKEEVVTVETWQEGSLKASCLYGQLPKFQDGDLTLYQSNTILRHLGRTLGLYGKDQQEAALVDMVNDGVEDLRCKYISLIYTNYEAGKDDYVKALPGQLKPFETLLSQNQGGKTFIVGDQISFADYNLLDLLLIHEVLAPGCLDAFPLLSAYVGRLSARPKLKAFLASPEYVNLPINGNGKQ
Chain of GST P1-1 (P09211 2-210 limits assumed, species assumed): as the sequence (P09211 2-210 limits assumed) above

| inhibition at 20 µM ([3]; HL-60, 20 μM) | cellular GSTπ inhibition (amounts of immunoprecipitable GST P1 and GST P1-1 vs DMSO control) [3, 8] | concentration dependence of cellular GSTπ inhibitory effect [3, 8] | Structure (SMILES) | IC50 [1] | permeability through cell membrane [2] | differentiation of HL-60 cells [4] | colony formation of hematopoietic progenitor cells [5] | white blood cell production [6] | hematologic response [7] | tolerability [7] |
| --- | --- | --- | --- | --- | --- | --- | --- | --- | --- | --- |
|  |  |  | N[C@@H](CCC(=O)N[C@@H](CSCc1ccccc1)C(=O)N[C@@H](C(=O)O)c1ccccc1)C(=O)O [TLK117, L-γ-glutamyl-S-(phenylmethyl)-L-cysteinyl-D-phenylglycine] (γGlu-Cys(Bn)-[dPhg]-OH) | ~400 nM | poor permeability |  |  |  |  |  |
| ~90% | is a cellular GSTπ inhibitor | concentration dependent | CCOC(=O)[C@@H](N)CCC(=O)N[C@@H](CSCc1ccccc1)C(=O)N[C@@H](C(=O)OCC)c1ccccc1 [TLK199] | > 200000 nM |  | induce the differentiation | stimulate colony formation | increase white blood cell production | multilineage hematologic improvement | well tolerated |
